Where “and” joins values, the source holds several entries; their conditions need not be identical. Equal entries are not always repeated.
How the values were obtained:
hydroxyproline = test: UUO study: hydroxyproline levels; type: in vivo, rats
Source text: Table 31 and FIGS. 27B-27C depict hydroxyproline levels in sham rats (black bar in FIG. 27B; square shape in FIG. 27C), UUO rats treated with vehicle (grey bar in FIG. 27B; circle shape in FIG. 27C), and UUO rats treated with Compound A (white bar in FIG. 27B; triangle shape in FIG. 27C).

[1] = Bleomycin IPF model: body weight and mortality; type: in vivo, C57BI/6J mice; set-up: Mean Body Weight Change: unit not given here
Method: Male C57BI/6J mice, aged 12 weeks with an approximate weight of 25-30 g were obtained from Jackson Laboratories (Bar Harbor, ME). Animals were acclimated for two weeks prior to study initiation, and were randomized into the experimental groups outlined in Table 32.
Intratracheal (IT) administration of Bleo or PBS control was conducted at the start of the study (Day 0). […] Animals were weighed on Day 0, and indexed boluses of PBS control (Group 1) or Bleo (Groups 2-6) were delivered by IT administration.
Following administration of Bleo, animals (n=10/group) were included in the study if they met the following guidelines on Day 7: (1) a predictable 5% loss in body weight, and (2) the presence of fibrotic pulmonary lesions, detected by micro-CT imaging. 10 animals from Group 1 additionally proceeded as controls. Animals that continued in the study on Day 7 received an oral gavage (OG) administration of PBS, Compound A (1 mg/kg, 3 mg/kg, 10 mg/kg), or Pirfenidone (300 mg/kg), as outlined in Table 31 in 25 μL boluses every other day (QOD), starting on Day 7. Compound A was formulated in 5% (v/v) DMSO/15% (v/v) PEG 400/80% (v/v) E-TPGS in purified water. […]

Q: Which “Final Hydroxyproline Con., Mean” value (hydroxyproline; UUO rats + Compound A, group mean of 8) does the source give for `Cn1cc(-c2ccccc2)c(-c2cn(C)c(=O)c3[nH]c(-c4cnn(C(F)(F)F)c4)cc23)cc1=O` [Compound A, 6-methyl-4-(1-methyl-2-oxo-5-phenyl-1,2-dihydropyridin-4-yl)-2-(1-(trifluoromethyl)-1H-pyrazol-4-yl)-1,6-dihydro-7H-pyrrolo[2,3-c]pyridin-7-one] here?
A: 0.66 μg/mg tissue

Q: And the “Final Hydroxyproline Con., Mean ± SEM” value (hydroxyproline; UUO rats + Compound A, group of 8)?
A: 0.66 ± 0.05 μg/mg tissue

Q: What about the “Final Hydroxyproline Con.” value (hydroxyproline; UUO rats + Compound A, individual animals) of the same compound?
A: 0.69 μg/mg tissue and 0.86 μg/mg tissue and 0.63 μg/mg tissue and 0.61 μg/mg tissue (2×) and 0.64 μg/mg tissue and 0.44 μg/mg tissue and 0.80 μg/mg tissue

Q: And the “Hydroxyproline levels, difference between experimental groups” value (hydroxyproline; UUO rats, 10 mg/kg)?
A: No significant differences

Q: What about the “Mean Body Weight Change” value ([1]; Bleo + Compound A (1 mg/kg) OG QOD from D7, Day 1) of the same compound?
A: 1.269

Q: And the “Mean Body Weight Change” value ([1]; Bleo + Compound A (1 mg/kg) OG QOD from D7, Day 2)?
A: −0.061

Q: What about the “Mean Body Weight Change” value ([1]; Bleo + Compound A (1 mg/kg) OG QOD from D7, Day 3) of the same compound?
A: −0.538

Q: What about the “Mean Body Weight Change” value ([1]; Bleo + Compound A (1 mg/kg) OG QOD from D7, Day 4) of the same compound?
A: −4.382

Q: What about the “Mean Body Weight Change” value ([1]; Bleo + Compound A (1 mg/kg) OG QOD from D7, Day 5) of the same compound?
A: −8.986

Q: And the “Mean Body Weight Change” value ([1]; Bleo + Compound A (1 mg/kg) OG QOD from D7, Day 6)?
A: −11.204

Q: And the “Mean Body Weight Change” value ([1]; Bleo + Compound A (1 mg/kg) OG QOD from D7, Day 7)?
A: −14.465

Q: What about the “Mean Body Weight Change” value ([1]; Bleo + Compound A (1 mg/kg) OG QOD from D7, Day 8) of the same compound?
A: −18.012

Q: And the “Mean Body Weight Change” value ([1]; Bleo + Compound A (1 mg/kg) OG QOD from D7, Day 9)?
A: −17.310

Q: And the “Mean Body Weight Change” value ([1]; Bleo + Compound A (1 mg/kg) OG QOD from D7, Day 10)?
A: −17.947

Q: And the “Mean Body Weight Change” value ([1]; Bleo + Compound A (1 mg/kg) OG QOD from D7, Day 11)?
A: −16.922

Q: And the “Mean Body Weight Change” value ([1]; Bleo + Compound A (1 mg/kg) OG QOD from D7, Day 12)?
A: −17.204

Q: And the “Mean Body Weight Change” value ([1]; Bleo + Compound A (1 mg/kg) OG QOD from D7, Day 13)?
A: −16.710

Q: What about the “Mean Body Weight Change” value ([1]; Bleo + Compound A (1 mg/kg) OG QOD from D7, Day 14) of the same compound?
A: −16.996

Q: And the “Mean Body Weight Change” value ([1]; Bleo + Compound A (1 mg/kg) OG QOD from D7, Day 15)?
A: −16.840

Q: What about the “Mean Body Weight Change” value ([1]; Bleo + Compound A (1 mg/kg) OG QOD from D7, Day 16) of the same compound?
A: 16.698

Q: And the “Mean Body Weight Change” value ([1]; Bleo + Compound A (1 mg/kg) OG QOD from D7, Day 17)?
A: −16.509

Q: What about the “Mean Body Weight Change” value ([1]; Bleo + Compound A (1 mg/kg) OG QOD from D7, Day 18) of the same compound?
A: −16.113

Q: What about the “Mean Body Weight Change” value ([1]; Bleo + Compound A (1 mg/kg) OG QOD from D7, Day 19) of the same compound?
A: −16.612

Q: And the “Mean Body Weight Change” value ([1]; Bleo + Compound A (1 mg/kg) OG QOD from D7, Day 20)?
A: −16.506

Q: What about the “Mean Body Weight Change” value ([1]; Bleo + Compound A (1 mg/kg) OG QOD from D7, Day 21) of the same compound?
A: −16.978

Q: What about the “Mean Body Weight Change” value ([1]; Bleo + Compound A (3 mg/kg) OG QOD from D7, Day 1) of the same compound?
A: 0.712

Q: What about the “Mean Body Weight Change” value ([1]; Bleo + Compound A (3 mg/kg) OG QOD from D7, Day 2) of the same compound?
A: −0.088

Q: And the “Mean Body Weight Change” value ([1]; Bleo + Compound A (3 mg/kg) OG QOD from D7, Day 3)?
A: −1.018

Q: What about the “Mean Body Weight Change” value ([1]; Bleo + Compound A (3 mg/kg) OG QOD from D7, Day 4) of the same compound?
A: −5.198

Q: What about the “Mean Body Weight Change” value ([1]; Bleo + Compound A (3 mg/kg) OG QOD from D7, Day 5) of the same compound?
A: −8.915

Q: And the “Mean Body Weight Change” value ([1]; Bleo + Compound A (3 mg/kg) OG QOD from D7, Day 6)?
A: −11.426

Q: What about the “Mean Body Weight Change” value ([1]; Bleo + Compound A (3 mg/kg) OG QOD from D7, Day 7) of the same compound?
A: −14.024

Q: And the “Mean Body Weight Change” value ([1]; Bleo + Compound A (3 mg/kg) OG QOD from D7, Day 8)?
A: −18.310

Q: What about the “Mean Body Weight Change” value ([1]; Bleo + Compound A (3 mg/kg) OG QOD from D7, Day 9) of the same compound?
A: 18.416

Q: And the “Mean Body Weight Change” value ([1]; Bleo + Compound A (3 mg/kg) OG QOD from D7, Day 10)?
A: −19.029

Q: And the “Mean Body Weight Change” value ([1]; Bleo + Compound A (3 mg/kg) OG QOD from D7, Day 11)?
A: −17.826

Q: And the “Mean Body Weight Change” value ([1]; Bleo + Compound A (3 mg/kg) OG QOD from D7, Day 12)?
A: −18.384

Q: And the “Mean Body Weight Change” value ([1]; Bleo + Compound A (3 mg/kg) OG QOD from D7, Day 13)?
A: −18.055

Q: What about the “Mean Body Weight Change” value ([1]; Bleo + Compound A (3 mg/kg) OG QOD from D7, Day 14) of the same compound?
A: −18.840

Q: And the “Mean Body Weight Change” value ([1]; Bleo + Compound A (3 mg/kg) OG QOD from D7, Day 15)?
A: −19.765

Q: And the “Mean Body Weight Change” value ([1]; Bleo + Compound A (3 mg/kg) OG QOD from D7, Day 16)?
A: −19.797

Q: And the “Mean Body Weight Change” value ([1]; Bleo + Compound A (3 mg/kg) OG QOD from D7, Day 17)?
A: −20.566

Q: And the “Mean Body Weight Change” value ([1]; Bleo + Compound A (3 mg/kg) OG QOD from D7, Day 18)?
A: −21.350

Q: What about the “Mean Body Weight Change” value ([1]; Bleo + Compound A (3 mg/kg) OG QOD from D7, Day 19) of the same compound?
A: −20.021

Q: What about the “Mean Body Weight Change” value ([1]; Bleo + Compound A (3 mg/kg) OG QOD from D7, Day 20) of the same compound?
A: −22.069

Q: And the “Mean Body Weight Change” value ([1]; Bleo + Compound A (3 mg/kg) OG QOD from D7, Day 21)?
A: −22.585

Q: And the “Mean Body Weight Change” value ([1]; Bleo + Compound A (10 mg/kg) OG QOD from D7, Day 1)?
A: 1.987

Q: What about the “Mean Body Weight Change” value ([1]; Bleo + Compound A (10 mg/kg) OG QOD from D7, Day 2) of the same compound?
A: 2.172

Q: And the “Mean Body Weight Change” value ([1]; Bleo + Compound A (10 mg/kg) OG QOD from D7, Day 3)?
A: 0.974

Q: What about the “Mean Body Weight Change” value ([1]; Bleo + Compound A (10 mg/kg) OG QOD from D7, Day 4) of the same compound?
A: 4.101

Q: And the “Mean Body Weight Change” value ([1]; Bleo + Compound A (10 mg/kg) OG QOD from D7, Day 5)?
A: −8.131

Q: What about the “Mean Body Weight Change” value ([1]; Bleo + Compound A (10 mg/kg) OG QOD from D7, Day 6) of the same compound?
A: −9.560

Q: And the “Mean Body Weight Change” value ([1]; Bleo + Compound A (10 mg/kg) OG QOD from D7, Day 7)?
A: −11.173

Q: And the “Mean Body Weight Change” value ([1]; Bleo + Compound A (10 mg/kg) OG QOD from D7, Day 8)?
A: −14.286

Q: What about the “Mean Body Weight Change” value ([1]; Bleo + Compound A (10 mg/kg) OG QOD from D7, Day 9) of the same compound?
A: −15.876

Q: What about the “Mean Body Weight Change” value ([1]; Bleo + Compound A (10 mg/kg) OG QOD from D7, Day 10) of the same compound?
A: −16.428

Q: What about the “Mean Body Weight Change” value ([1]; Bleo + Compound A (10 mg/kg) OG QOD from D7, Day 11) of the same compound?
A: −14.809

Q: And the “Mean Body Weight Change” value ([1]; Bleo + Compound A (10 mg/kg) OG QOD from D7, Day 12)?
A: −13.953

Q: What about the “Mean Body Weight Change” value ([1]; Bleo + Compound A (10 mg/kg) OG QOD from D7, Day 13) of the same compound?
A: −15.394

Q: What about the “Mean Body Weight Change” value ([1]; Bleo + Compound A (10 mg/kg) OG QOD from D7, Day 14) of the same compound?
A: −13.610

Q: What about the “Mean Body Weight Change” value ([1]; Bleo + Compound A (10 mg/kg) OG QOD from D7, Day 15) of the same compound?
A: −15.280

Q: What about the “Mean Body Weight Change” value ([1]; Bleo + Compound A (10 mg/kg) OG QOD from D7, Day 16) of the same compound?
A: −13.218

Q: And the “Mean Body Weight Change” value ([1]; Bleo + Compound A (10 mg/kg) OG QOD from D7, Day 17)?
A: −13.174

Q: And the “Mean Body Weight Change” value ([1]; Bleo + Compound A (10 mg/kg) OG QOD from D7, Day 18)?
A: −14.218

Q: And the “Mean Body Weight Change” value ([1]; Bleo + Compound A (10 mg/kg) OG QOD from D7, Day 19)?
A: −15.010

Q: And the “Mean Body Weight Change” value ([1]; Bleo + Compound A (10 mg/kg) OG QOD from D7, Day 20)?
A: −16.208

Q: What about the “Mean Body Weight Change” value ([1]; Bleo + Compound A (10 mg/kg) OG QOD from D7, Day 21) of the same compound?
A: −16.139

Q: What about the “Ending body weight at Day 21” value ([1]; Bleo mice, 10 mg/kg) of the same compound?
A: higher ending weight at Day 21

Q: What about the “Body weight course after start of administration” value ([1]; Bleo mice, all doses tested (1, 3, 10 mg/kg)) of the same compound?
A: weight loss was arrested

Q: And the “Body weight compared with Bleo+Saline treated animals” value ([1]; Compound A (all doses tested), Pirfenidone (300 mg/kg))?
A: No significant difference

Q: What about the Deaths / mortality ([1]; OG administration, IPF study) of the same compound?
A: no deaths or significant changes in mortality

Source: patent US20260217701A1, “SELECTIVE BET INHIBITORS AND USES THEREOF” (Tay Therapeutics Limited, priority 2022, published 2026)
